For series [1] the following is noted: for vapor or sublimation pressure: Liquid; for Triple point temperature: Crystal.
Series [2] in a line: Molar enthalpy of transition or fusion. To be noted: Crystal; DSC.
Series [3] can be described thus: Solid-liquid equilibrium temperature. To be noted: 100 kPa; Crystal.

Structures are written as SMILES. Numbers after ± are expanded uncertainties.

One may read the vapor or sublimation pressure as the pressure of vapour in equilibrium with the condensed phase. For the molecule `CC(C)=O` [acetone], in series [1] (333.15 K), the “vapor or sublimation pressure” value came to 115.7 ± 5.4 kPa.

For `CN1CCCC1=O` [N-methylpyrrolidone], the figures for the “vapor or sublimation pressure” value in series [1] (333.15 K) and in series [1] (373.15 K) were 0.5 kPa and 3.6 ± 2.6 kPa, respectively. Further, the Triple point temperature in series [1] (visual observation) is 249.68 ± 0.39 K. The “Molar enthalpy of transition or fusion” value in series [2] amounted to 2.64 ± 0.0693 kcal/mol.

With `CCCCC(C)=O` [2-hexanone], the “vapor or sublimation pressure” value in series [1] (373.15 K) was determined as 43.8 ± 1.8 kPa. Also, the Triple point temperature in series [1] is given as 218.42 ± 2 K. Further, the Solid-liquid equilibrium temperature in series [3] was 215.57 ± 2 K.

In the case of `CCC(=O)CC` [pentan-3-one], the “vapor or sublimation pressure” value in series [1] (373.15 K) came to 95.9 ± 4.9 kPa. Further, the Triple point temperature in series [1] (visual observation) is 234.36 ± 0.39 K.

For the molecule `O=C1CCCC1` [cyclopentanone], the Triple point temperature in series [1] (visual observation) is given as 220.77 ± 0.39 K.

As for `CCCC(=O)CCC` [4-heptanone], the Triple point temperature in series [1] (visual observation) is listed as 241.77 ± 0.39 K.

The values are drawn from the NIST ThermoML archive (doi:10.1016/j.jct.2004.11.007).
